What was measured:
[1] = test system: LnCap cells; assay: Effect on LnCap cell viability; conditions: for viability at 1 µM: Homo sapiens, LNCaP, read-out: % Cell Viability of LnCap cells at 1 μM, 1 μM
Description: (§1) The initial interest was to see the importance of length of side chain on B-3. […] Relative cell growth can be assessed using the MTT (3-(4,5-dimethylthiazol-2-yl)-2,5-diphenyltetrazolium bromide) assay, a colorimetric assay for assessing cell metabolic activity. Cells (1000 to 2000 cells/well) in 150 μL culture medium were seeded in wells of a 96-well plate one day before various concentrations of drugs were added. After continuing culture in the presence of the drugs for the indicated time (3-4 days), 20 μL of 5 mg/mL MTT solution (Sigma-Aldrich) was added into each well. After incubation at 37° C. for 30 min, the culture medium was removed and 100 μL of DMSO was added to dissolve MTT crystals. Plates were shaken for 15 min at room temperature and absorbance at OD590 was read by plate reader.

[2] = test system: 22rv1; assay: Effect on 22rv1 cell viability; conditions: for % Cell Viability of 22rv1 at 1 μM: at 1 μM (stated in cell)
Description: as §1

[3] = test system: LNCaP and 22rv1 cell lines; assay: SAR statements on LNCaP and 22rv1 cell lines; format: cell-based; conditions: LNCaP 1 μM, 22rv1 0.5 μM
Description: All compounds were evaluated for their effects on LNCaP and 22rv1 cell lines at 1 and 0.5 μM concentrations, respectively. […] For this purpose different analogues of B-3 with chain length varying from 0 to 4 carbon were synthesized (Table 1). […] In view of the availability of a variety of commercially available benzyl amines over phenyl propyl amines and method to functionalize analogues with 1C chain compound 14c was selected for further modification.

SMILES | % Cell Viability of LnCap cells at 1 μM [1] | % Cell Viability of 22rv1 at 0.5 μM [2] | activity on cell lines, in words (SAR) [3] | other results
O=C(NCc1cccc(-c2ccc(F)cc2)c1)c1cccc(-c2cc(O)c3ncccc3c2)c1 [Compound 16i] | 17.3% | 42.01% | – | –
CC(C)NC(=O)c1ccc(CNC(=O)c2cccc(-c3cc(O)c4ncccc4c3)c2)cc1 [Compound 17g] | – | 41.0% | proved useful | –
O=C(NCc1ccccc1)c1cccc(-c2cc(O)c3ncccc3c2)c1 [Compound 14c] | – | 79.3% (B-3, | restoration of activity | –
O=C(NCc1ccc(C(=O)c2ccccc2)cc1)c1cccc(-c2cc(O)c3ncccc3c2)c1 [Compound 16k] | 26.7 (B-3, ND) % | 6.4% | – | –
O=C(NCc1ccc(C(F)(F)F)cc1F)c1cccc(-c2cc(O)c3ncccc3c2)c1 [Compound 15r] | 101% | – | – | –
O=C(NCc1ccc(C(=O)NC2CCCCCC2)cc1)c1cccc(-c2cc(O)c3ncccc3c2)c1 [Compound 17k] | – | 10.8% | loss of activity | –
O=C(Nc1ccccc1)c1cccc(-c2cc(O)c3ncccc3c2)c1 [Compound 14d] | – | – | poor activity | –
CC(C)CNC(=O)c1ccc(CNC(=O)c2cccc(-c3cc(O)c4ncccc4c3)c2)cc1 [Compound 17f] | – | 41.0% | proved useful | –
O=C(NCc1ccc(C(=O)NC2CCCC2)cc1)c1cccc(-c2cc(O)c3ncccc3c2)c1 [Compound 17i] | – | 29.8% | loss of activity | –
O=C(NCc1ccc(C(=O)Nc2ccc(C(F)(F)F)cc2)cc1)c1cccc(-c2cc(O)c3ncccc3c2)c1 [Compound 17o] | – | – | significantly lower activities compared to compounds 17l and 17m | –
O=C(NCc1ccc(-c2ccc(C(F)(F)F)cc2)cc1)c1cccc(-c2cc(O)c3ncccc3c2)c1 [Compound 16f] | 44.2% | – | – | –
O=C(NCc1cc(C(F)(F)F)cc(C(F)(F)F)c1)c1cccc(-c2cc(O)c3ncccc3c2)c1 [Compound 15p] | 62.5% | – | – | –
COc1ccc(CNC(=O)c2cccc(-c3cc(O)c4ncccc4c3)c2)cc1 [Compound 15g] | 68.4% | – | – | –
COc1cc(CNC(=O)c2cccc(-c3cc(O)c4ncccc4c3)c2)cc(OC)c1OC [Compound 15k] | 98.1 (B-3, ND) % | – | – | –
COc1cccc(CNC(=O)c2cccc(-c3cc(O)c4ncccc4c3)c2)c1 [Compound 15h] | 88.5% (B-3, ND) | – | – | –
CCOC(=O)c1ccc(CNC(=O)c2cccc(-c3cc(O)c4ncccc4c3)c2)cc1 [Compound 17d] | – | 22.7% | – | –
O=C(O)c1ccc(CNC(=O)c2cccc(-c3cc(O)c4ncccc4c3)c2)cc1 [Compound 17a] | – | – | – | viability at 1 µM [1]: 97.5%
CN(C)c1ccc(CNC(=O)c2cccc(-c3cc(O)c4ncccc4c3)c2)cc1 [Compound 15t] | 66.3% | 19.6% | – | –
O=C(NCCc1ccccc1)c1cccc(-c2cc(O)c3ncccc3c2)c1 [Compound 14b] | – | 83.7% (B-3, | deterioration of activity | –
O=C(NCCCCc1ccccc1)c1cccc(-c2cc(O)c3ncccc3c2)c1 [Compound 14a] | – | – | deterioration of activity | –
O=C(NCc1cccc(-c2ccccc2)c1)c1cccc(-c2cc(O)c3ncccc3c2)c1 [Compound 16h] | 21.8% | 26.9% | – | –
CCCOC(=O)c1ccc(CNC(=O)c2cccc(-c3cc(O)c4ncccc4c3)c2)cc1 [Compound 17e] | – | 7.9% | better than compound 17c | –

SMILES | % Cell Viability of LnCap cells at 1 μM [1] | % Cell Viability of 22rv1 at 0.5 μM [2] | activity on cell lines, in words (SAR) [3] | other results
O=C(NCc1ccc(Oc2ccc(F)cc2)cc1)c1cccc(-c2cc(O)c3ncccc3c2)c1 [Compound 16d] | – | – | – | % Cell Viability of 22rv1 at 1 μM [2]: 35.1%
COC(=O)c1ccc(CNC(=O)c2cccc(-c3cc(O)c4ncccc4c3)c2)cc1 [Compound 17c] | – | – | – | viability at 1 µM [1]: 47.9%; viability at 0.5 µM ([2]; Homo sapiens, 22Rv1, read-out: % Cell Viability of 22rv1 at 0.5 μM): 12.9%
O=C(NCc1ccccc1O)c1cccc(-c2cc(O)c3ncccc3c2)c1 [Compound 15f] | 56.9% | – | – | –
O=C(NCc1ccc(C(F)(F)F)cc1)c1cccc(-c2cc(O)c3ncccc3c2)c1 [Compound 15m] | 67.7% | – | – | –
O=C(NCc1ccncc1)c1cccc(-c2cc(O)c3ncccc3c2)c1 [Compound 15u] | 70.9% | – | – | –
O=C(NCc1ccc(C(=O)N[C@H]2CC[C@H](C(F)(F)F)CC2)cc1)c1cccc(-c2cc(O)c3ncccc3c2)c1 [Compound 17m] | 24.2% | – | much more active than compound 17n | –
NC(=O)c1ccc(CNC(=O)c2cccc(-c3cc(O)c4ncccc4c3)c2)cc1 [Compound 17b] | – | 78.4% | lower activity than B-3 | –
O=C(NCc1cccc(O)c1)c1cccc(-c2cc(O)c3ncccc3c2)c1 [Compound 15e] | 87.9% | – | – | –
O=C(NCc1ccc(Oc2ccccc2Cl)cc1)c1cccc(-c2cc(O)c3ncccc3c2)c1 [Compound 16c] | – | – | – | % Cell Viability of 22rv1 at 1 μM [2]: 38.1%
N#Cc1ccc(CNC(=O)c2cccc(-c3cc(O)c4ncccc4c3)c2)cc1 [Compound 15s] | 52.8% (B-3, ND) | – | – | –
O=C(NCC1CC1)c1cccc(-c2cc(O)c3ncccc3c2)c1 [Compound 15w] | 60.7% | – | – | –
CC1Cc2ccc(-c3ccc(CNC(=O)c4cccc(-c5cc(O)c6ncccc6c5)c4)cc3)cc2O1 (centres unmarked) [Compound 16g] | 30.0% | – | – | –
O=C(NCc1ccc(F)cc1)c1cccc(-c2cc(O)c3ncccc3c2)c1 [Compound 15a] | 72.8% | – | – | –
O=C(NCc1cccs1)c1cccc(-c2cc(O)c3ncccc3c2)c1 [Compound 15v] | 79.8% | – | – | –
O=C(NCc1cccc(C(F)(F)F)c1)c1cccc(-c2cc(O)c3ncccc3c2)c1 [Compound 15n] | 75.4% | – | – | –
O=C(NCc1ccc(C(=O)N[C@H]2CC[C@@H](C(F)(F)F)CC2)cc1)c1cccc(-c2cc(O)c3ncccc3c2)c1 [Compound 17n] | – | – | 17m (trans isomer) was much more active than compound 17n | –
COc1ccc(CNC(=O)c2cccc(-c3cc(O)c4ncccc4c3)c2)cc1OC [Compound 15l] | 75.7 (B-3, ND) % | – | – | –
O=C(NCc1ccccc1C(F)(F)F)c1cccc(-c2cc(O)c3ncccc3c2)c1 [Compound 15o] | 94.5% | – | – | –
O=C(NCc1ccccc1-c1ccc(CN2CCCC2=O)cc1)c1cccc(-c2cc(O)c3ncccc3c2)c1 [Compound 16j] | 10.9% | 14.3% | – | inhibition of 22rv1 cells, in words ([2]; compared with B-3): inhibited 22rv1 cells much better than B-3
O=C(NCC1CCCCC1)c1cccc(-c2cc(O)c3ncccc3c2)c1 [Compound 15x] | 104% (B-3, ND) | – | – | –
O=C(NCc1ccc(Oc2ccc(Cl)cc2)cc1)c1cccc(-c2cc(O)c3ncccc3c2)c1 [Compound 16b] | – | – | – | % Cell Viability of 22rv1 at 1 μM [2]: 33.2%

— patent US12378201B2, “Histone demethylase inhibitors for treating cancers” (The Board of Regents of the University of Texas System, priority 2019, dated 2025)
